Measurements published in ChEMBL document CHEMBL1201862, “PubChem BioAssay data set” (2004).
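Growth conditions: 96-well plates. Treatment: test compound, 48 hours, 5 concentrations. Analysis: linear interpolation between bracketing concentrations; unreached endpoints set to highest concentration. GI50 = concentration required for 50% inhibition of growth.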 Activity calls are given as the source filed them. No stated cut-off is given here; in the data, active = GI50 up to about 1.1 µM and inactive = higher.

Key:
Assay in all cases: inhibition of tumour cell growth, NCI panel, 48 h
UACC-62 = system: UACC-62
SNB-75 = system: SNB-75
MDA-N = system: MDA-N
SK-MEL-28 = system: SK-MEL-28
SF-539 = system: SF-539
HL-60 = system: HL-60
SK-OV-3 = system: SK-OV-3
HOP-92 = system: HOP-92
786-0 = system: 786-0
ACHN = system: ACHN
SK-MEL-5 = system: SK-MEL-5
NCI/ADR-RES = system: NCI/ADR-RES
MDA-MB-435 = system: MDA-MB-435
A549 = system: A549
SN12C = system: SN12C
NCI-H226 = system: NCI-H226
DU-145 = system: DU-145
K562 = system: K562
SNB-19 = system: SNB-19
Malme-3M = system: Malme-3M

| Structure (SMILES) | GI50 (UACC-62) | GI50 (SNB-75) | GI50 (MDA-N) | GI50 (SK-MEL-28) | GI50 (SF-539) | GI50 (HL-60) | GI50 (SK-OV-3) | GI50 (HOP-92) | GI50 (786-0) | GI50 (ACHN) | GI50 (SK-MEL-5) | GI50 (NCI/ADR-RES) | GI50 (MDA-MB-435) | GI50 (A549) | GI50 (SN12C) | GI50 (NCI-H226) | GI50 (DU-145) | GI50 (K562) | GI50 (SNB-19) | GI50 (Malme-3M) |
| --- | --- | --- | --- | --- | --- | --- | --- | --- | --- | --- | --- | --- | --- | --- | --- | --- | --- | --- | --- | --- |
| c1csc(-c2ccsc2-c2ccsc2)c1 | > 100 µM (inactive) | > 100 µM (inactive) | 73.1 µM (inactive) | > 100 µM (inactive) | > 100 µM (inactive) | 33.1 µM (inactive) | > 100 µM (inactive) | > 100 µM (inactive) | 97.3 µM (inactive) | > 100 µM (inactive) | 70 µM (inactive) | 76 µM (inactive) | 39.3 µM (inactive) | 43.1 µM (inactive) | > 100 µM (inactive) | 0.0264 µM (active) | > 100 µM (inactive) | 73.8 µM (inactive) |  |  |
| O=C(OCc1ccccc1)C(Cc1ccc(OCc2ccccc2)cn1)NC(=O)C(F)(F)F (centres undefined) |  | 3.01 µM (inactive) | > 100 µM (inactive) | > 100 µM (inactive) | > 100 µM (inactive) | 56.2 µM (inactive) |  | > 100 µM (inactive) | > 100 µM (inactive) | > 100 µM (inactive) | 35.4 µM (inactive) | > 100 µM (inactive) | 92.9 µM (inactive) | 62.8 µM (inactive) | > 100 µM (inactive) | > 100 µM (inactive) | > 100 µM (inactive) | 42.8 µM (inactive) | > 100 µM (inactive) | > 100 µM (inactive) |
| COc1ccccc1CNCc1nc2ccccc2[nH]1 | > 100 µM (inactive) | > 100 µM (inactive) | > 100 µM (inactive) | > 100 µM (inactive) | > 100 µM (inactive) | 80.5 µM (inactive) |  | > 100 µM (inactive) | > 100 µM (inactive) | > 100 µM (inactive) | 48.5 µM (inactive) | > 100 µM (inactive) | > 100 µM (inactive) | > 100 µM (inactive) | > 100 µM (inactive) | > 100 µM (inactive) | > 100 µM (inactive) | > 100 µM (inactive) | > 100 µM (inactive) |  |
| Cc1ccc(S(=O)(=O)NC(C(=O)O)C(C)C)cc1 (centres undefined) | > 100 µM (inactive) | > 100 µM (inactive) | > 100 µM (inactive) | > 100 µM (inactive) |  |  |  | > 100 µM (inactive) | > 100 µM (inactive) | > 100 µM (inactive) | > 100 µM (inactive) | > 100 µM (inactive) | > 100 µM (inactive) | > 100 µM (inactive) | > 100 µM (inactive) | > 100 µM (inactive) | > 100 µM (inactive) | > 100 µM (inactive) | > 100 µM (inactive) | > 100 µM (inactive) |
| Cc1nc(C)c(C(=O)NNC(=O)c2ccccc2)cc1C(=O)NNC(=O)c1ccccc1 | > 100 µM (inactive) | > 10 µM (inactive) | > 100 µM (inactive) |  | > 100 µM (inactive) | > 100 µM (inactive) | > 100 µM (inactive) | > 100 µM (inactive) | > 100 µM (inactive) | > 100 µM (inactive) | > 100 µM (inactive) | > 100 µM (inactive) | > 100 µM (inactive) | > 100 µM (inactive) | > 100 µM (inactive) | > 100 µM (inactive) | > 100 µM (inactive) | > 100 µM (inactive) | > 100 µM (inactive) |  |
| Cc1cccc(-c2cc(=S)c3cc(N4CCCC4)ccc3[nH]2)c1 | > 100 µM (inactive) | > 100 µM (inactive) | > 100 µM (inactive) | > 100 µM (inactive) | > 100 µM (inactive) |  | > 100 µM (inactive) | > 100 µM (inactive) | > 100 µM (inactive) | > 100 µM (inactive) | > 100 µM (inactive) | > 100 µM (inactive) | > 100 µM (inactive) | > 100 µM (inactive) | > 100 µM (inactive) | > 100 µM (inactive) | > 100 µM (inactive) | > 100 µM (inactive) | > 100 µM (inactive) |  |
| CCCC1CCC(=C2C(=O)CCC2=O)O1 (centres undefined) | > 100 µM (inactive) | 4.91 µM (inactive) | > 100 µM (inactive) | > 100 µM (inactive) | > 100 µM (inactive) | 0.364 µM (active) | > 100 µM (inactive) | > 100 µM (inactive) | > 100 µM (inactive) | > 100 µM (inactive) |  | > 100 µM (inactive) | > 100 µM (inactive) | > 100 µM (inactive) | > 100 µM (inactive) | > 100 µM (inactive) | > 100 µM (inactive) | > 100 µM (inactive) | > 100 µM (inactive) |  |
| Oc1ccc2ccccc2c1Cc1c(O)ccc2ccccc12 | 14 µM (inactive) | 20.5 µM (inactive) | 11.6 µM (inactive) | 21.6 µM (inactive) | 21.4 µM (inactive) | 17.8 µM (inactive) | 17.5 µM (inactive) |  | 21.1 µM (inactive) | 17.3 µM (inactive) | 16.1 µM (inactive) | 15.2 µM (inactive) | 11 µM (inactive) | 18.1 µM (inactive) | 16.2 µM (inactive) | 20.9 µM (inactive) | 17.9 µM (inactive) | 8.83 µM (inactive) | 18.4 µM (inactive) | 13.2 µM (inactive) |
